Our source for the Activity values is ChEMBL document CHEMBL5678818, “Discovery of potent SOS1 inhibitors that block RAS activation via disruption of the RAS-SOS1 interaction” (Proc Natl Acad Sci U S A, 2019).

The target in assay [1] is T1, Serine/threonine-protein kinase TAO3 (Homo sapiens) (UniProt Q9H2K8).
T1 sequence (whole entry): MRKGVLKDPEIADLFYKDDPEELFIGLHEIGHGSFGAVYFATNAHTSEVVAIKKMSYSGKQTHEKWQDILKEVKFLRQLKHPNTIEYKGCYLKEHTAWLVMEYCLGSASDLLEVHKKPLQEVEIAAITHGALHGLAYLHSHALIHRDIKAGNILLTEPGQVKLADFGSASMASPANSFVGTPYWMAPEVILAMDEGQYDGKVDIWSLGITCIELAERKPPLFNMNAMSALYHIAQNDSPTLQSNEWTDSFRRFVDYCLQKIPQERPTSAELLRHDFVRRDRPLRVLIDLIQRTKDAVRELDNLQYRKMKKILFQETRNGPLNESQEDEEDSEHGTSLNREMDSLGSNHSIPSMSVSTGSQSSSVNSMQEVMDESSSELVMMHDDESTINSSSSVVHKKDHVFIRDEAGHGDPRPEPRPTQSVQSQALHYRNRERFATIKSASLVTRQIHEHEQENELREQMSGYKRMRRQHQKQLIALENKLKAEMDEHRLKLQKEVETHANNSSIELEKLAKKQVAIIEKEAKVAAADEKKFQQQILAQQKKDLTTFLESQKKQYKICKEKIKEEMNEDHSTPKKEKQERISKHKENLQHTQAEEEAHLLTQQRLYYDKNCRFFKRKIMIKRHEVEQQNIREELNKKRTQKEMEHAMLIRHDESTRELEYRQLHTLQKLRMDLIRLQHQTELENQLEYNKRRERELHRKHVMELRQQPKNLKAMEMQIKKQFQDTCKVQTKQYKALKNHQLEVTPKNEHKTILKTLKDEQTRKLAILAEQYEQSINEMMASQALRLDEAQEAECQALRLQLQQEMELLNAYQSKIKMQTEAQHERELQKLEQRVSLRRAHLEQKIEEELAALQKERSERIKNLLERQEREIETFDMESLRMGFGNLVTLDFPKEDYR
The assay is described as follows: Inhibition of TAOK3 (unknown origin) assessed as residual activity at 100 nM by KINOMEscan analysis relative to control.

Assay [2] addresses T2, Ephrin type-B receptor 4 (Homo sapiens) (UniProt P54760).
T2 sequence (whole entry): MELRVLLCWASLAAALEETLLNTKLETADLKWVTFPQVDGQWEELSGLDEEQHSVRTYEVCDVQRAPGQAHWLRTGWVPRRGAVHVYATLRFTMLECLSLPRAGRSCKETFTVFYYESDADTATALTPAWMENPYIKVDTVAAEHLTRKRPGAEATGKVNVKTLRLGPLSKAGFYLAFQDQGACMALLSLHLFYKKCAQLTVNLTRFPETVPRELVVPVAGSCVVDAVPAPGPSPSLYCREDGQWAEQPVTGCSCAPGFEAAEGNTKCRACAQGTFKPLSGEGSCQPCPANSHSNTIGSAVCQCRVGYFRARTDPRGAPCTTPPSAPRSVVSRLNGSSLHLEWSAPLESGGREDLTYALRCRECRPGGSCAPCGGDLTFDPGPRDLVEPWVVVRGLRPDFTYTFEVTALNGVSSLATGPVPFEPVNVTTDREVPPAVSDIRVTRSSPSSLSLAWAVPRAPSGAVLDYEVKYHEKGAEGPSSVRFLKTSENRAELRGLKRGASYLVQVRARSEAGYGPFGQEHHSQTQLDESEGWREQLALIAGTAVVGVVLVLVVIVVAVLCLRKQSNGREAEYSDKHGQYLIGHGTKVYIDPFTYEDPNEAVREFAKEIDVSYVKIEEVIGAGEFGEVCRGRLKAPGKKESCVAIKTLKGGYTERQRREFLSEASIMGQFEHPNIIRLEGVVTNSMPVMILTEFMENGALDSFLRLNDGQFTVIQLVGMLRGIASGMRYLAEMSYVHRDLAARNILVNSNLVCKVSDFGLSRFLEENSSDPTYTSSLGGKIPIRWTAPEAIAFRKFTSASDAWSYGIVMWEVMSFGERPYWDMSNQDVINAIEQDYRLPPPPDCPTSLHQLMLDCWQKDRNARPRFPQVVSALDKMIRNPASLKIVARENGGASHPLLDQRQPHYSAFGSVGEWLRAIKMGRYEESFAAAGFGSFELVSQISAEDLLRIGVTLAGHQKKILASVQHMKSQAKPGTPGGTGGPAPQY
Briefly: Inhibition of EPHB4 (unknown origin) assessed as residual activity at 100 nM by KINOMEscan analysis relative to control.

The target in assay [3] is Aurora kinase B (Homo sapiens) (UniProt Q96GD4). The assay is described as follows: Inhibition of AURKB (unknown origin) assessed as residual activity at 100 nM by KINOMEscan analysis relative to control.
Assay [4] concerns the target T3, Atypical kinase COQ8B, mitochondrial (Homo sapiens) (UniProt Q96D53).
T3 sequence (whole entry): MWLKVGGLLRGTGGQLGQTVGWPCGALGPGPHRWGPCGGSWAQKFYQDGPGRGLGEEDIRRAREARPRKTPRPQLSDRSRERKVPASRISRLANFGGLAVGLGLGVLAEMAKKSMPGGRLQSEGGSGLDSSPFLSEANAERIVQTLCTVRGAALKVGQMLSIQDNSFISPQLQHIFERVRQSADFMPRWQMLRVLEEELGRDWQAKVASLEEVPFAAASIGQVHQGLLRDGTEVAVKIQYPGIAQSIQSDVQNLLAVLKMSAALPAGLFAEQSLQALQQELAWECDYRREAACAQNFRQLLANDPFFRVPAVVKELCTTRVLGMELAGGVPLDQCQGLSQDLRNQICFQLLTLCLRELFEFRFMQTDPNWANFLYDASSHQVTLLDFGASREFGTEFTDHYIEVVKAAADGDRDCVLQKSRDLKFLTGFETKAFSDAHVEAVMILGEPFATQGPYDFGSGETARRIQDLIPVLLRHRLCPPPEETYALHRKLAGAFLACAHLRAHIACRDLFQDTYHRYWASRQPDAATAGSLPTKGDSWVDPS
The assay is described as follows: Inhibition of ADCK4 (unknown origin) assessed as residual activity at 100 nM by KINOMEscan analysis relative to control.

Assay [5] has as its target Serine/threonine-protein kinase MARK1 (Homo sapiens) (UniProt Q9P0L2). The assay is described as follows: Inhibition of MARK1 (unknown origin) assessed as residual activity at 100 nM by KINOMEscan analysis relative to control.
Assay [6] has as its system Receptor-type tyrosine-protein kinase FLT3 (Homo sapiens), P36888 [D835V]. The assay is described as follows: Inhibition of FLT3 D835V mutant (unknown origin) assessed as residual activity at 1000 nM by KINOMEscan analysis relative to control.

Each structure is given as a SMILES string.

Sequence of Serine/threonine-protein kinase MARK1 (Homo sapiens) (Q9P0L2 whole entry, looked up): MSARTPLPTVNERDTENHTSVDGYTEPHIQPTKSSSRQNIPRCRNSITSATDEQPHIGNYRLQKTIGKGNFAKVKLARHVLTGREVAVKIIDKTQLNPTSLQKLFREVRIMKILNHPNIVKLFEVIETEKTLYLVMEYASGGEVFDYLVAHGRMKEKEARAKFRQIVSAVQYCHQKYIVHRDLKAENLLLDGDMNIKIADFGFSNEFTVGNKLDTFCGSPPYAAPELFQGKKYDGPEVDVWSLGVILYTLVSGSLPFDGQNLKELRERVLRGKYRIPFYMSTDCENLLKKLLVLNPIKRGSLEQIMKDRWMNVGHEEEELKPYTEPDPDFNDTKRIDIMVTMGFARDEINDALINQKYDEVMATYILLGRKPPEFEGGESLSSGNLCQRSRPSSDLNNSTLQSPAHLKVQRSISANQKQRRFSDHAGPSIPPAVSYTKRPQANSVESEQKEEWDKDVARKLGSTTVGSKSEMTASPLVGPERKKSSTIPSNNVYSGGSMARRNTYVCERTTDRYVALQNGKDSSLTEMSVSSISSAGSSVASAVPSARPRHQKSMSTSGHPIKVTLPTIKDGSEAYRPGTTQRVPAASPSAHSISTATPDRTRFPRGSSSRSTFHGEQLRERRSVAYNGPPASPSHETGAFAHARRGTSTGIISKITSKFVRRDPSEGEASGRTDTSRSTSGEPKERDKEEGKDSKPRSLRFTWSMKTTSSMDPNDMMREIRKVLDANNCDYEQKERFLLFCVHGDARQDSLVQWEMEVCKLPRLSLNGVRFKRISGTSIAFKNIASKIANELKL
Sequence of Aurora kinase B (Homo sapiens) (Q96GD4 whole entry): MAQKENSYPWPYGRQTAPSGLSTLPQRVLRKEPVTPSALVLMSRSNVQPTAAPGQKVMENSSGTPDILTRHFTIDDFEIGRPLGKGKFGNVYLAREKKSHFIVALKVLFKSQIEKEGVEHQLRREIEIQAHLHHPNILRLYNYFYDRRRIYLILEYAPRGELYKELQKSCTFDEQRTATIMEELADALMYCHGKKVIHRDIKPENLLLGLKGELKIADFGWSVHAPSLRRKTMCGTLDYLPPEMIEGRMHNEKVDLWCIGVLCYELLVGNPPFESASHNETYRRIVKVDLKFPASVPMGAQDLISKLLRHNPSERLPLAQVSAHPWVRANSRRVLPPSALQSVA

`COc1cc2ncnc(N[C@H](C)c3cccc4ccccc34)c2cc1OC`: the Activity turned out to be 82% in assay [1]; 75% in assay [2]; 96% in assay [3]; 61% in assay [4]; 100% in assay [5].
Regarding `COc1cc2nc(C)nc(N[C@H](C)c3cccc(-c4cn[nH]c4)c3)c2cc1OC`, in assay [6], the Activity was 100%.
